Data set [1] deals with melon aphids. The data set can be described thus: whole plant or invertebrate. To be noted: Aphis gossypii, topical, 24 h, read-out: Total Mortality.
The subject of data set [2] is melon aphids. To be noted: words.
Data set [3] has as its system western flower thrips. Particulars: words.
In a further data set the test system is leafminer. Particulars: for highest observed mortality: leafminer, in vivo, topical or ocular, 480 h.
In the next data set the test system is housefly. The data set can be described thus: whole plant or invertebrate. To be noted: Musca domestica, topical, 24 h, read-out: highest observed mortality.
The next data set deals with melon aphid. As to the kind of experiment: Pesticidal efficacy, melon aphid (Example 8). To be noted: for mortality at 1 % / mortality at 5 %: Aphis gossypii, topical, read-out: highest observed mortality.
Another data set concerns human head lice eggs. Particulars: 22.5 g as a thin layer on the eggs; cited from earlier work.
A further data set relates to rats. To be noted: Merck Index; cited from earlier work.
A further data set concerns roses. To be noted: in vivo. The text has this: Both formulations were applied via direct contact spray.
Both were applied via direct contact spray.

Data set [4] deals with western flower thrips. The data set can be described thus: whole plant or invertebrate. To be noted: Frankliniella occidentalis, topical, 72 h, read-out: highest observed mortality.
In data set [5] the test system is Western flower thrips (larvae and pupae). The data set can be described thus: whole plant or invertebrate. To be noted: Frankliniella occidentalis, topical, read-out: Total Mortality.
Data set [6] concerns two-spotted spider mites. Particulars: words.
Data set [7] has as its system two-spotted spider mites. To be noted: 1.0% BB, 0.1% T80; words.
Data set [8] has as its system E. hirsti (chiggar mite) larvae. Particulars: cloth treated with ethanol solution of 5% benzyl benzoate, cited from earlier work.
Another data set deals with silverleaf whiteflies. To be noted: for highest observed mortality: silverleaf whitefly, in vivo, topical or ocular, 120 h.
Data set [9] relates to melon aphids. The data set can be described thus: whole plant or invertebrate. To be noted: Aphis gossypii, topical, 24 h, read-out: Total Mortality. This is another data set of the same source.
In data set [10] the test system is Western flower thrips (larvae and pupae). To be noted: 1.0% BB, 0.1% T80, words.
Data set [11] has as its system melon aphids. To be noted: 1.5% BB, 0.3% T80; words.
The test system of a further data set is honey bee. The data set can be described thus: Pesticidal efficacy, honey bee (Example 8). In kind it is in vivo. Particulars: Apis mellifera, topical, T20 carrier, 24 hours post application, read-out: highest observed mortality.
Data set [12] deals with melon aphids. As to the kind of experiment: whole plant or invertebrate. To be noted: Aphis gossypii, topical, read-out: Total Mortality.
The next data set has as its system cat flea. As to the kind of experiment: Pesticidal efficacy, cat flea (Example 8). To be noted: for mortality at 5 wt %: Ctenocephalides felis, topical, 24 h, read-out: highest observed mortality.
A further data set concerns chrysanthemums. Also on record: species or system chrysanthemum. Particulars: in vivo. The text has this:
Both formulations were applied via direct contact spray. […] The phytotoxicity of plants were also observed.

The test system of another data set is German cockroach. As to the kind of experiment: whole plant or invertebrate. To be noted: Blattella germanica, topical, 24 h, read-out: highest observed mortality.
Data set [13] concerns melon aphids. To be noted: 1.5% BB, 0.5% T80; words.
For the next data set, the system named is pharaoh ant. Particulars: for highest observed mortality: in vivo, topical or ocular, 24 h.
The test system of the next data set is Argentine ants. As to the kind of experiment: Repellency to Argentine ants. In kind it is in vivo, Argentine ant. Particulars: at one week.
The test system of another data set is plants. The data set can be described thus: Phytotoxicity to plants (general statement). The class given is in vivo. Particulars: words.
Another data set relates to arthropods. The data set can be described thus: Insecticidal activity on arthropods (general statement). Particulars: words. In kind it is in vivo.
The conditions of data set [14]: until 25 wt % concentration; cited from earlier work.
Another data set deals with Argentine ant. The data set can be described thus: Pesticidal efficacy, Argentine ant (Example 8).
The subject of data set [15] is melon aphids. As to the kind of experiment: whole plant or invertebrate. In kind it is in vivo, Aphis gossypii. Particulars: for efficacy against melon aphids: 1.0% BS, 0.2% T20, words.
For data set [16], the system named is two-spotted spider mites. The class given is in vivo, Tetronmychua urticae. Particulars: for efficacy against two-spotted spider mites: 1.0% BS, 0.2% T20, words.
Data set [17] relates to American cockroach. To be noted: for Time (to 100% lethality): 5.0 wt % ES, 1.0 wt % T20.
Description: (§1) The objective of the experiment was to evaluate the general effectiveness of ES in an emulsion formulation against the American cockroach.
(§2) An emulsion of ES (Sigma) was prepared at 5.0 wt % ES and 1.0 wt % T20. A 1 wt % T20 solution was also prepared as a formula blank treatment. A negative control of no treatment was included in the bioassay. The three treatments were applied to three replications of 4 cockroaches each.
(§3) The treatments were applied as sprays using a standard hand held 250 ml sprayer. For each direct treatment, 4 cockroaches were each sprayed to run-off on filter paper fitted to the bottom of a 1 liter stainless steel jar. Cockroaches were then transferred to 250 ml flasks for observation. For residuality/reintroduction bioassays, the treated filter papers were removed from direct treatment spray jars and allowed to air dry. After drying, the filter papers were replaced in jars and cockroaches introduced for observation.
The test system of data set [18] is American cockroach. As to the kind of experiment: whole plant or invertebrate. To be noted: Periplaneta americana, topical, read-out: highest observed mortality.
Description: as §1, §2, §3
The subject of a further data set is two-spotted spider mite. As to the kind of experiment: Pesticidal efficacy, two-spotted spider mite (Example 8). Particulars: for mortality at 5 %: Tetranychus urticae, topical, read-out: highest observed mortality.
The next data set has as its system cladosporium. The data set can be described thus: Evaluation against the fungus cladosporium. Particulars: 1 wt % formulation.

Molecules are shown by their SMILES. Where two headings read alike, the source gives them in different places.

Description for German cockroach: (§4) All experiments were conducted with a hand held sprayer at an application rate equivalent to 100 gallons/acre. […] Specific treatment conditions were as follows: pharaoh ants were contained in paper cups with a cloth mesh enclosure at the top and sprayed from a distance of 12 inches; honey bees were contained in wire mesh cages with Petri dishes as end enclosures and sprayed from a distance of 24 inches; German cockroaches and houseflies were contained in Peet-Grady chambers and sprayed from a distance of 24 inches; and cat fleas were delivered onto carpet disks and sprayed from an un-reported distance.
Description for cat flea: as §4
(§5) In evaluating efficacy against structural pests, BS was tested on pharaoh ant and cat flea at two concentrations, 1 wt % and 5 wt %.
Description for housefly: as §4
Description for pharaoh ant: as §4, §5

With `O=C(OCc1ccccc1)c1ccccc1` [BB, benzyl benzoate], the mortality (commonly the share of the test organisms that died) at 1.5 % came out at 89.4% in the data set on melon aphids [1] and 85% in the data set with melon aphids [12]. Besides, the “efficacy against melon aphids” value with melon aphids [2] (2.5% BB, 0.1% T80) was “clear efficacy against melon aphids”; with melon aphids [11] it was “clear efficacy against melon aphids”. Further, the controlling aphids entry in the data set on melon aphids [2] (summary of Examples 1-7) is “effective for controlling aphids”. Also, the “dose response, western flower thrips” value in the data set on western flower thrips [3] was “all except for western flower thrips”. Besides, the figures for the highest observed mortality in the data set on leafminer, with silverleaf whiteflies and with pharaoh ant were 24%, 39% and 21%, respectively. Moreover, in the data set on leafminer (words), the “dose response, leafminer” value is given as “Good dose response”. Also, in the data set on housefly, the mortality at 0.1 % is 35%. In addition, the mortality at 1 % came to 74% in the data set with melon aphid, 85.7% in data set [5] and 0% with German cockroach. The “dose response, melon aphid” value with melon aphid (words) is on record as “Good dose response”. In the data set on human head lice eggs, the “killing human head lice eggs” value is “killing human head lice eggs”. In addition, the LD50 in the data set on rats is 1,830 mg/Kg. The “phytotoxicity observed on the roses” value in the data set with roses was “no phytotoxicity observed”. The mortality at 0.25 % in the data set on western flower thrips [4] is 14%. Further, the “efficacy against two spotted spider mites” value in the data set with two-spotted spider mites [6] (2.5% BB, 0.1% T80) is “clearly indicate efficacy of the BB formulation against two spotted spider mites”. In the data set on two-spotted spider mites [6] (summary of Examples 1-7), the controlling spider mites entry was “effective for controlling aphids, thrips, and spider mites”. For the same molecule, in the data set on two-spotted spider mites [7], the “efficacy against two-spotted spider mites” value is “indicate efficacy of the benzyl benzoate formulation against two-spotted spider mites”. For the same molecule, the “knockdown of test larvae” value in data set [8] (<3 minutes) is 100%. Further, the “time to 100% knockdown” value in data set [8] is under 3 min. In addition, the “dose response, silverleaf whiteflies” value with silverleaf whiteflies (words) is “Good dose response”. For the same molecule, the mortality at 2.5 % in the data set with melon aphids [9] worked out at 90.3%. In addition, the “efficacy against Western flower thrips” value in data set [10] is reported as “clear efficacy against Western flower thrips”; in data set [10] (listed as benzyl benzoate) it was “effective for controlling aphids, thrips”. Moreover, the mortality at 0.3 % in the data set on honey bee (0.3 wt % AC) turned out to be 68%. Besides, the mortality at 5 wt % with cat flea turned out to be 93%. Also, the phytotoxicity of chrysanthemums result in the data set with chrysanthemums is reported as “None of the treatments resulted in phytotoxicity of chrysanthemums”. In the data set with chrysanthemums, the phytotoxicity to chrysanthemums entry was “no phytotoxicity to chrysanthemums”. In the data set on chrysanthemums, the “phytotoxicity, chrysanthemum” value is recorded as “no phytotoxicity for 5 days, only the lowest leaves showed two necrotic spots but no serious damage”. Further, the “phytotoxicity, chrysanthemums” value with chrysanthemums is given as “no phytotoxicity”. The “effect on melon aphids” value with melon aphids [13] is recorded as “killed the aphids in their tracks; the aphids did not desiccate, instead appeared preserved”.
As for `O=C(OCc1ccccc1)c1ccccc1O` [BS, benzyl salicylate], the “repellant to Argentine ants” value with Argentine ants was “repellant to Argentine ants at one week”. Further, in the data set with plants, the phytotoxicity result is listed as “can be phytotoxic to some plants”. The insecticidal activity entry in the data set on arthropods is recorded as “clearly shown to be insecticidal”. Also, the highest observed mortality with leafminer is reported as 25%; in the data set on Argentine ant (1.0 wt % AC, T20 carrier), 99%; with silverleaf whiteflies, 70%; in the data set on pharaoh ant it was 89%. In addition, in the data set on housefly, the mortality at 0.1 % was determined as 47%. Also, the mortality at 1 % in the data set on melon aphid is 98%; in the data set on melon aphids [15] (Aphis gossypii, topical, read-out: Total Mortality), 89.3%; with honey bee (1.0 wt % AC), 78%. The “dose response, melon aphid” value in the data set with melon aphid (words) is “activity increased with AC concentration only on melon aphid”. Moreover, the contact dermatitis result in data set [14] is listed as “does not cause contact dermatitis (until 25 wt % concentration)”. For the same molecule, the mortality at 0.5 % with western flower thrips [4] stood at 36%. In addition, the “LC100 at higher concentrations” value in the data set on Argentine ant (2, 3 and 5 wt %, words) is “held at 2 wt %, 3 wt % and 5 wt %”. The molecule further yielded an LC100 in the data set with Argentine ant (AC concentration) of 1 wt %. For the same molecule, the “activity on Argentine ants” value with Argentine ant (words) is listed as “excellent activity”. In the data set on Argentine ant (words), the “dose response, Argentine ants” value is reported as “good dose response”. Also, the “efficacy against melon aphids” value with melon aphids [15] was “clearly indicate the efficacy of BS against melon aphids”; in the data set on melon aphids [15] (listed as benzyl salicylate) it was “effective in controlling aphids”. Besides, in the data set with cat flea (5 wt %, words), the “effective on cat flea” value was “effective on both pests”. Further, the mortality at 5 wt % with cat flea amounted to 100%. Besides, the “efficacy against two-spotted spider mites” value with two-spotted spider mites [16] was “clearly indicate the efficacy of BS against melon aphids and two-spotted spider mites”; in the data set on two-spotted spider mites [16] (listed as benzyl salicylate), “effective in controlling aphids and spider mites”. Further, the “Total Mortality” value in the data set on two-spotted spider mites [16] (in vivo, topical or ocular) is on record as 86.9%. Besides, the “phytotoxicity, chrysanthemums” value in the data set on chrysanthemums was “severe damage from leaf tips moving inwards, and some leaf damage beginning from bottom leaves and moving upwards, with the newest leaves remaining unaffected”. Moreover, in the data set with German cockroach, the mortality at 1.1 % was determined as 0%. Further, in the data set with pharaoh ant (5 wt %, words), the “effective on pharaoh ant” value is given as “effective on both pests”.
Consider `CCOC(=O)c1ccccc1O` [ES, ethyl salicylate], for which the “lethality on American cockroach” value in the data set with American cockroach [17] (5 wt %, direct spray, words) was “lethal”. Further, the entries for the “Time (to 100% lethality)” value in the data set with American cockroach [17] (Direct spray) and in the data set with American cockroach [17] (Residuality/Reintroduction) were 3 to 7 min and 60 to 120 min, respectively. Moreover, in the data set with American cockroach [17] (american cockroach, in vivo), the Lethality was 100%. The “time, lethal to all test cockroaches” value in the data set with American cockroach [17] (both direct spray and residual/reintroduction) is at most 2 h. In addition, the mortality at 5 wt % in the data set on American cockroach [18] stood at 100%. The mortality at 5 % in the data set with melon aphid and in the data set on two-spotted spider mite was 90% throughout.
As to `CC(=O)OCc1ccccc1` [benzyl acetate], the phytotoxicity entry in the data set on plants was “non-phytotoxic”. The mortality at 5 % in the data set with melon aphid and with two-spotted spider mite was at least 90% throughout. The activity on aphid result with melon aphid (words) is given as “high activity”. The “activity on 2-spotted spider mites” value in the data set with two-spotted spider mite (words) is “high activity”.
`CCCCOC(=O)c1ccccc1C(=O)OCc1ccccc1` [benzyl butyl phthalate]: the results for the mortality at 5 % in the data set with melon aphid and in the data set with two-spotted spider mite were 70% and 50%, respectively.
Turning to `COC(=O)c1ccccc1O` [methyl salicylate], the mortality at 5 % in the data set with melon aphid and with two-spotted spider mite was 90% each time.
For `O=C(Oc1ccccc1)c1ccccc1O` [phenyl salicylate], the “effect against the fungus cladosporium” value in the data set on cladosporium is “effective at both inhibiting fungal growth and at killing the fungus”. For the same molecule, the mortality at 5 % with melon aphid and in the data set with two-spotted spider mite was 90% in each case.

Source of the values: patent US6124275A, “Methods and compositions for controlling a pest population” (priority 1999, dated 2000).
